Assay results taken from patent US20140000883A1, “PETROLEUM RECOVERY PROCESS AND SYSTEM” (Shell Oil Company, priority 2012, published 2014).

How the values were obtained:
[1] = Extraction of mined oil sands with solvents (bitumen recovery); conditions: for Recovered Bitumen: not corrected for residual solvent;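 on Recovered Bitumen: Bitumen mass includes 3 to 7 wt% residual solvent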
Description: The quality of dimethyl sulfide as an oil recovery agent based on the miscibility of dimethyl sulfide with a crude oil relative to other compounds was evaluated. […] Each oil sands sample was weighed and placed in a cellulose extraction thimble that was placed on a porous polyethylene support disk in a jacketed glass cylinder with a drip rate control valve. Each oil sands sample was then extracted with a selected solvent at a selected temperature (10° C. or 30° C.) in a cyclic contact and drain experiment, where the contact time ranged from 15 to 60 minutes. Fresh contacting solvent was applied and the cyclic extraction repeated until the fluid drained from the apparatus became pale brown in color.
The extracted fluids were stripped of solvent using a rotary evaporator and thereafter vacuum dried to remove residual solvent. […] The residual solids and extraction thimble were air dried, weighed, and then vacuum dried. […] Collectively, the weight of the solid or sample and thimble recovered after extraction plus the quantity of bitumen recovered after extraction divided by the weight of the initial oil sands sample plus the thimble provide the mass closure for the extractions.

[2] = SARA analysis of extracted bitumen samples; conditions: bitumen extracted at 30° C.
Description: The bitumen samples extracted at 30° C. from each oil sands sample were evaluated by SARA analysis to determine the saturates, aromatics, resins, and asphaltenes composition of the bitumen samples extracted by each solvent.

[3] = Viscosity of crude blended with dimethyl sulfide (rheometer); type: physicochemical
Description: The quality of dimethyl sulfide as an oil recovery agent based on the crude oil viscosity lowering properties of dimethyl sulfide was evalulated. Three crude oils having widely disparate viscosity characteristics—an African Waxy crude, a Middle Eastern asphaltic crude, and a Canadian asphaltic crude—were blended with dimethyl sulfide.
A control sample of each crude was prepared containing no dimethyl sulfide, and samples of each crude were prepared and blended with dimethyl sulfide to prepare crude samples containing increasing concentrations of dimethyl sulfide. Each sample of each of the crudes was heated to 60° C. to dissolve any waxes therein and to permit weighing of a homogeneous liquid, weighed, allowed to cool overnight, then blended with a selected quantity of dimethyl sulfide. The samples of the crude/dimethyl sulfide blend were then heated to 60° C. and mixed to ensure homogeneous blending of the dimethyl sulfide in the samples. Absolute (dynamic) viscosity measurements of each of the samples were taken using a rheometer and closed cup sensor assembly. Viscosity measurements of each of the samples of the West African waxy crude and the Middle Eastern asphaltic crude were taken at 20° C., 40° C., 60° C., 80° C., and then again at 20° C. after cooling from 80° C., where the second measurement at 20° C. is taken to measure the viscosity without the presence of waxes since wax formation occurs slowly enough to permit viscosity measurement at 20° C. without the presence of wax. Viscosity measurements of each of the samples of the Canadian asphaltic crude were taken at 5° C., 10° C., 20° C., 40° C., 60° C., 80° C., The measured viscosities for each of the crudes are shown in Tables 4, 5, and 6 below.

With `CSC` [Dimethyl Sulfide, dimethyl sulfide] the “recovering bitumen from an oil sand material, compared with the best known fluids” value ([1]; 10° C. and 30° C.) was “comparable”, the “Weight Change” value ([1]; extraction at 10 C.) was 16.9 g and the “Recovered Bitumen” value ([1]; extraction at 10 C.) was 16.55 g. The “Weight Change” value ([1]; extraction at 30 C.) was 16.7 g, the “Recovered Bitumen” value ([1]; extraction at 30 C.) was 16.29 g and the “extraction of / miscibility with asphaltenes” value [2] was “excellent miscibility properties”. For the same molecule, the Viscosity ([3]; DMS 1.21 wt. %, 20° C.) was 125.8 mPa s, the Viscosity ([3]; DMS 1.21 wt. %, 20° C. after cooling from 80° C.) was 100.1 mPa s and the Viscosity ([3]; DMS 1.21 wt. %, 40° C.) was 30.94 mPa s. It also gave a Viscosity ([3]; DMS 1.21 wt. %, 60° C.) of 14.66 mPa s, a Viscosity ([3]; DMS 1.21 wt. %, 80° C.) of 8.92 mPa s and a Viscosity ([3]; DMS 1.3 wt. %, 20° C.) of 1733.8 mPa s. It also gave a Viscosity ([3]; DMS 1.3 wt. %, 20° C. after cooling from 80° C.) of 1624.8 mPa s, a Viscosity ([3]; DMS 1.3 wt. %, 40° C.) of 334.5 mPa s and a Viscosity ([3]; DMS 1.3 wt. %, 60° C.) of 106.7 mPa s. The Viscosity ([3]; DMS 1.3 wt. %, 80° C.) was 44.6 mPa s, the Viscosity ([3]; DMS 2.48 wt. %, 20° C.) was 122.3 mPa s and the Viscosity ([3]; DMS 2.48 wt. %, 20° C. after cooling from 80° C.) was 89.23 mPa s. For the same molecule, the Viscosity ([3]; DMS 2.48 wt. %, 40° C.) was 30.53 mPa s, the Viscosity ([3]; DMS 2.48 wt. %, 60° C.) was 13.66 mPa s and the Viscosity ([3]; DMS 2.48 wt. %, 80° C.) was 8.44 mPa s. It also gave a Viscosity ([3]; DMS 2.6 wt. %, 20° C.) of 1026.6 mPa s, a Viscosity ([3]; DMS 2.6 wt. %, 20° C. after cooling from 80° C.) of 881.1 mPa s and a Viscosity ([3]; DMS 2.6 wt. %, 40° C.) of 219.9 mPa s. For the same molecule, the Viscosity ([3]; DMS 2.6 wt. %, 60° C.) was 76.5 mPa s, the Viscosity ([3]; DMS 2.6 wt. %, 80° C.) was 34.3 mPa s and the Viscosity ([3]; DMS 5.03 wt. %, 20° C.) was 78.37 mPa s. It also gave a Viscosity ([3]; DMS 5.03 wt. %, 20° C. after cooling from 80° C.) of 55.21 mPa s, a Viscosity ([3]; DMS 5.03 wt. %, 40° C.) of 20.24 mPa s and a Viscosity ([3]; DMS 5.03 wt. %, 60° C.) of 10.45 mPa s. The Viscosity ([3]; DMS 5.03 wt. %, 80° C.) was 6.55 mPa s, the Viscosity ([3]; DMS 5.3 wt. %, 20° C.) was 496.5 mPa s and the Viscosity ([3]; DMS 5.3 wt. %, 20° C. after cooling from 80° C.) was 503.5 mPa s. For the same molecule, the Viscosity ([3]; DMS 5.3 wt. %, 40° C.) was 134.2 mPa s, the Viscosity ([3]; DMS 5.3 wt. %, 60° C.) was 52.2 mPa s and the Viscosity ([3]; DMS 5.3 wt. %, 80° C.) was 25.5 mPa s. It also gave a Viscosity ([3]; DMS 7.6 wt. %, 20° C.) of 288.0 mPa s, a Viscosity ([3]; DMS 7.60 wt. %, 20° C.) of 60.92 mPa s and a Viscosity ([3]; DMS 7.6 wt. %, 20° C. after cooling from 80° C.) of 290.0 mPa s. It also gave a Viscosity ([3]; DMS 7.60 wt. %, 20° C. after cooling from 80° C.) of 40.89 mPa s, a Viscosity ([3]; DMS 7.6 wt. %, 40° C.) of 89.4 mPa s and a Viscosity ([3]; DMS 7.60 wt. %, 40° C.) of 17.08 mPa s. It also gave a Viscosity ([3]; DMS 7.6 wt. %, 60° C.) of 37.4 mPa s, a Viscosity ([3]; DMS 7.60 wt. %, 60° C.) of 9.29 mPa s and a Viscosity ([3]; DMS 7.6 wt. %, 80° C.) of 19.3 mPa s. The Viscosity ([3]; DMS 7.60 wt. %, 80° C.) was 6.09 mPa s, the Viscosity ([3]; DMS 8.01 wt. %, 20° C.) was 5799 mPa s and the Viscosity ([3]; DMS 8.01 wt. %, 40° C.) was 982 mPa s. For the same molecule, the Viscosity ([3]; DMS 8.01 wt. %, 60° C.) was 275 mPa s, the Viscosity ([3]; DMS 8.01 wt. %, 80° C.) was 106 mPa s and the Viscosity ([3]; DMS 9.80 wt. %, 20° C.) was 2760 mPa s. For the same molecule, the Viscosity ([3]; DMS 9.80 wt. %, 40° C.) was 571 mPa s, the Viscosity ([3]; DMS 9.80 wt. %, 60° C.) was 173 mPa s and the Viscosity ([3]; DMS 9.80 wt. %, 80° C.) was 73 mPa s. It also gave a Viscosity ([3]; DMS 9.95 wt. %, 20° C.) of 44.70 mPa s, a Viscosity ([3]; DMS 9.95 wt. %, 20° C. after cooling from 80° C.) of 30.61 mPa s and a Viscosity ([3]; DMS 9.95 wt. %, 40° C.) of 13.03 mPa s. For the same molecule, the Viscosity ([3]; DMS 9.95 wt. %, 60° C.) was 7.58 mPa s, the Viscosity ([3]; DMS 9.95 wt. %, 80° C.) was 5.04 mPa s and the Viscosity ([3]; DMS 10.1 wt. %, 20° C.) was 150.0 mPa s. For the same molecule, the Viscosity ([3]; DMS 10.1 wt. %, 20° C. after cooling from 80° C.) was 150.5 mPa s, the Viscosity ([3]; DMS 10.1 wt. %, 40° C.) was 52.4 mPa s and the Viscosity ([3]; DMS 10.1 wt. %, 60° C.) was 24.5 mPa s. The Viscosity ([3]; DMS 10.1 wt. %, 80° C.) was 13.5 mPa s, the Viscosity ([3]; DMS 14.81 wt. %, 5° C.) was 1794 mPa s and the Viscosity ([3]; DMS 14.81 wt. %, 10° C.) was 1155 mPa s. For the same molecule, the Viscosity ([3]; DMS 14.81 wt. %, 20° C.) was 548 mPa s, the Viscosity ([3]; DMS 14.81 wt. %, 40° C.) was 159 mPa s and the Viscosity ([3]; DMS 14.81 wt. %, 60° C.) was 64 mPa s. It also gave a Viscosity ([3]; DMS 14.81 wt. %, 80° C.) of 32 mPa s, a Viscosity ([3]; DMS 15.13 wt. %, 20° C.) of 23.96 mPa s and a Viscosity ([3]; DMS 15.13 wt. %, 20° C. after cooling from 80° C.) of 17.64 mPa s. It also gave a Viscosity ([3]; DMS 15.13 wt. %, 40° C.) of 8.32 mPa s, a Viscosity ([3]; DMS 15.13 wt. %, 60° C.) of 4.97 mPa s and a Viscosity ([3]; DMS 15.13 wt. %, 80° C.) of 3.38 mPa s. For the same molecule, the Viscosity ([3]; DMS 15.2 wt. %, 20° C.) was 59.4 mPa s, the Viscosity ([3]; DMS 15.2 wt. %, 20° C. after cooling from 80° C.) was 60.7 mPa s and the Viscosity ([3]; DMS 15.2 wt. %, 40° C.) was 25.2 mPa s. For the same molecule, the Viscosity ([3]; DMS 15.2 wt. %, 60° C.) was 13.6 mPa s, the Viscosity ([3]; DMS 15.2 wt. %, 80° C.) was 8.2 mPa s and the Viscosity ([3]; DMS 19.30 wt. %, 20° C.) was 15.26 mPa s. The Viscosity ([3]; DMS 19.30 wt. %, 20° C. after cooling from 80° C.) was 12.06 mPa s, the Viscosity ([3]; DMS 19.30 wt. %, 40° C.) was 6.25 mPa s and the Viscosity ([3]; DMS 19.30 wt. %, 60° C.) was 4.05 mPa s. The Viscosity ([3]; DMS 19.30 wt. %, 80° C.) was 2.92 mPa s, the Viscosity ([3]; DMS 19.78 wt. %, 20° C.) was 188 mPa s and the Viscosity ([3]; DMS 19.78 wt. %, 40° C.) was 69 mPa s. The Viscosity ([3]; DMS 19.78 wt. %, 60° C.) was 33 mPa s, the Viscosity ([3]; DMS 19.78 wt. %, 80° C.) was 19 mPa s and the Viscosity ([3]; DMS 20.1 wt. %, 20° C.) was 29.9 mPa s. For the same molecule, the Viscosity ([3]; DMS 20.1 wt. %, 20° C. after cooling from 80° C.) was 31.0 mPa s, the Viscosity ([3]; DMS 20.1 wt. %, 40° C.) was 14.8 mPa s and the Viscosity ([3]; DMS 20.1 wt. %, 60° C.) was 8.7 mPa s. The Viscosity ([3]; DMS 20.1 wt. %, 80° C.) was 5.7 mPa s, the Viscosity ([3]; DMS 29.88 wt. %, 5° C.) was 113 mPa s and the Viscosity ([3]; DMS 29.88 wt. %, 10° C.) was 81 mPa s. The Viscosity ([3]; DMS 29.88 wt. %, 20° C.) was 51 mPa s, the Viscosity ([3]; DMS 29.88 wt. %, 40° C.) was 22 mPa s and the Viscosity ([3]; DMS 29.88 wt. %, 60° C.) was 13 mPa s. For the same molecule, the Viscosity ([3]; DMS 29.88 wt. %, 80° C.) was 8 mPa s, the Viscosity ([3]; DMS 39.61 wt. %, 5° C.) was 23 mPa s and the Viscosity ([3]; DMS 39.61 wt. %, 10° C.) was 20 mPa s. For the same molecule, the Viscosity ([3]; DMS 39.61 wt. %, 20° C.) was 14 mPa s, the Viscosity ([3]; DMS 39.61 wt. %, 40° C.) was 8 mPa s and the Viscosity ([3]; DMS 39.61 wt. %, 60° C.) was 6 mPa s. The Viscosity ([3]; DMS 39.61 wt. %, 80° C.) was 4 mPa s and the “lowering the viscosity of a crude oil” value ([3]; three crudes, wide range of initial viscosities) was “effective for significantly lowering the viscosity”.
